Here are results for 34 compounds from US8586588B2, “Aryl pyridazinone derivatives and their use as H3 receptor ligands” (Cephalon, Inc., priority 2006, dated 2013).

The target in assay [1] is T1, human H3 receptor (Homo sapiens, UniProt Q9Y5N1).
T1 construct: expressed in transfected cells
The assay is described as follows: Human H3 radioligand binding ([3H]-N-alpha-methylhistamine, CHO cell membranes, SPA). The note with it: binding constant as letter class. In outline:
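CHO cell membranes expressing human H3 (10 μg protein/well) incubated 4 h at room temperature, in the dark, with ~1 nM [3H]-N-alpha-methylhistamine, compounds (0.01 nM-30 μM) and SPA beads in 50 mM Tris HCl pH 7.4, 5 mM MgCl2, 0.1% BSA. Non-specific binding defined with 10 μM clobenpropit.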

Assay [2] concerns the target T2, rat histamine H3 receptor (Rattus norvegicus, UniProt Q9QYN8).
T2 construct: encoding the entire 445-amino-acid rat histamine H3 receptor; expressed in transfected cells
In words: Rat H3 radioligand binding ([3H]-N-alpha-methylhistamine, CHO-A3 cell membranes, SPA). In outline:
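Membranes from CHO-A3 cells stably expressing rat H3 (10 μg protein) incubated 4 h at room temperature in 50 mM Tris-HCl pH 7.4, 5 mM MgCl2, 0.1% BSA with ~1 nM [3H]-N-alpha-methylhistamine and compound (0.01 nM-30 μM). Bound radioligand read by scintillation proximity; nonspecific binding with 10 μM clobenpropit.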

Setting [3] is: Table A, binding constant as letter class, read-out: Rat H3 Ki.
The mark [4] stands for this setting: Table B, binding constant as letter class, read-out: rat H3 Ki.

Like-named read-outs stand apart in the source and are kept apart here. Where only a bound is given, the exact number is not on record here.

T1 sequence (Q9Y5N1 whole entry): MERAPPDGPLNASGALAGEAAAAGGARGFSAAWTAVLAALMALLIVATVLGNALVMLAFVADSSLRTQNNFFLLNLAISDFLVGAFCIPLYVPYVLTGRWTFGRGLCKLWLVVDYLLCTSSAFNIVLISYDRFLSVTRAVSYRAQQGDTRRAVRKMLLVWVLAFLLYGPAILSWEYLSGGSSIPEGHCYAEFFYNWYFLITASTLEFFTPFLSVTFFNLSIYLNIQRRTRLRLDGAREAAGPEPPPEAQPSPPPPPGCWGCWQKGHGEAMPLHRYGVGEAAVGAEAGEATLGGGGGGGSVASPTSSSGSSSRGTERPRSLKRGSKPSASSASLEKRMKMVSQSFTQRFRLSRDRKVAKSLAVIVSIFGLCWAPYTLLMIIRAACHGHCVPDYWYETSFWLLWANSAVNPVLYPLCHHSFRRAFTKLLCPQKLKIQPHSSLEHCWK
T2 sequence (Q9QYN8 whole entry): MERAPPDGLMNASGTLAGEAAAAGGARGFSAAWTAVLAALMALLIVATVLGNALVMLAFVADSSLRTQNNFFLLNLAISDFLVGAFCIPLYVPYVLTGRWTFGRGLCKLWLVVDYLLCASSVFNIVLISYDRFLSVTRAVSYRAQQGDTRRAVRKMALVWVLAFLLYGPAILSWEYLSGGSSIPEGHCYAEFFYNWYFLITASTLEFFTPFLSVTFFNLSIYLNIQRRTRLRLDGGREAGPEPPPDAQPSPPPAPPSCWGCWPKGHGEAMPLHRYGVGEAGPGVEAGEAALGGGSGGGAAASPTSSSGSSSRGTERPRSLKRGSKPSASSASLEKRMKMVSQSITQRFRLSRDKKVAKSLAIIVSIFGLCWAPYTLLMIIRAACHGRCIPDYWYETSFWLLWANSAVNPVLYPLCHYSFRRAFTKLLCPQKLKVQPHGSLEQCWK

With `CN1N=C(c2ccc(OCCCN3CCCCC3)cc2)C2CCCC2C1=O` (stereo not shown) [Example 59, 2-Methyl-4-[4-(3-piperidin-1-yl-propoxy)-phenyl]-2,4a,5,6,7,7a-hexahydro-cyclopenta[d]pyridazin-1-one], the inhibition constant Ki in assay [1] (Table A) and in assay [2] (setting [3]) was 0.1 to 100 nM each time.
With `C[C@@H]1CCCN1CCCOc1ccc(-c2nn(C)c(=O)c3c2CCCC3)cc1` [Example 60, 2-Methyl-4-{4-[3-((R)-2-methyl-pyrrolidin-1-yl)-propoxy]-phenyl}-5,6,7,8-tetrahydro-2H-phthalazin-1-one], the Ki in assay [1] (Table A) and in assay [2] (setting [3]) was 0.1 to 100 nM each time.
Turning to `Cn1nc(-c2ccc(OCCCN3CCCCC3)cc2)c2c(c1=O)CCCC2` [Example 61], the Ki in assay [1] (Table A) and in assay [2] (setting [3]) was 0.1 to 100 nM each time.
For `Cn1nc(-c2ccc(OCC3CCNCC3)cc2)c2ccccc2c1=O` [Example 63, 2-Methyl-4-[4-(piperidin-4-ylmethoxy)-phenyl]-2H-phthalazin-1-one], the Ki in assay [1] (Table A) and in assay [2] (setting [3]) was > 1000 nM in each case.
For `Cn1nc(-c2ccc(OCC3CCN(C4CCC4)CC3)cc2)c2ccccc2c1=O` [Example 64, 4-[4-(1-Cyclobutyl-piperidin-4-ylmethoxy)-phenyl]-2-methyl-2H-phthalazin-1-one], the Ki in assay [1] (Table A) lay within 0.1 to 100 nM; in assay [2] (setting [3]), 101 to 500 nM.
For `Cn1nc(-c2ccc(OCC3CCNCC3)cc2)ccc1=O` [Example 66, 2-Methyl-6-[4-(piperidin-4-ylmethoxy)-phenyl]-2H-pyridazin-3-one], the inhibitory constant (Ki) in assay [1] (Table A) and in assay [2] (setting [3]) was > 1000 nM in each case.
Consider `Cn1nc(-c2ccc(OCC3CCN(C4CCC4)CC3)cc2)ccc1=O` [Example 67, 6-[4-(1-Cyclobutyl-piperidin-4-ylmethoxy)-phenyl]-2-methyl-2H-pyridazin-3-one], for which the inhibitory constant (Ki) was 101 to 500 nM in assay [1] (Table A) and > 1000 nM in assay [2] (setting [3]).
As to `CC(C)N1CCC(COc2ccc(-c3ccc(=O)n(C)n3)cc2)CC1` [Example 68, 6-[4-(1-Isopropyl-piperidin-4-ylmethoxy)-phenyl]-2-methyl-2H-pyridazin-3-one], the Ki lay in the range of 0.1 to 100 nM in assay [1] (Table A) and 101 to 500 nM in assay [2] (setting [3]).
For `Cn1nc(-c2ccc(OCC3CCN(CC4CC4)CC3)cc2)ccc1=O` [Example 69, 6-[4-(1-Cyclopropylmethyl-piperidin-4-ylmethoxy)-phenyl]-2-methyl-2H-pyridazin-3-one], the inhibitory constant (Ki) was 101 to 500 nM in assay [1] (Table A) and > 1000 nM in assay [2] (setting [3]).
For `Cn1nc(-c2ccc(OCC3CCN(C4CCCC4)CC3)cc2)ccc1=O` [Example 70, 6-[4-(1-Cyclopentyl-piperidin-4-ylmethoxy)-phenyl]-2-methyl-2H-pyridazin-3-one], in that order: 101 to 500 nM and 101 to 500 nM.
For `CN1CCC(COc2ccc(-c3ccc(=O)n(C)n3)cc2)CC1` [Example 71, 2-Methyl-6-[4-(1-methyl-piperidin-4-ylmethoxy)-phenyl]-2H-pyridazin-3-one], in that order: 101 to 500 nM and 501 to 1000 nM.
Turning to `CC(C)N1CCC(Oc2ccc(-c3ccc(=O)n(C)n3)cc2)CC1` [Example 72], the Ki in assay [1] (Table A) and in assay [2] (setting [3]) was 0.1 to 100 nM each time.
Regarding `Cn1nc(-c2ccc(OC3CCNCC3)cc2)ccc1=O` [Example 73], the results for the Ki in assay [1] (Table A) and in assay [2] (setting [3]) were 501 to 1000 nM and > 1000 nM, respectively.
For `Cn1nc(-c2ccc(OC3CCN(C4CCC4)CC3)cc2)ccc1=O` [Example 74], the Ki in assay [1] (Table A) and in assay [2] (setting [3]) was 0.1 to 100 nM throughout.
Consider `C[C@@H]1CCCN1CCCOc1ccc2c(c1)CCc1cc(=O)n(C)nc1-2` [Example 75, 2-Methyl-8-[3-((R)-2-methyl-pyrrolidin-1-yl)-propoxy]-5,6-dihydro-2H-benzo[h]cinnolin-3-one], for which the Ki in assay [1] (Table A) and in assay [2] (setting [3]) was 0.1 to 100 nM throughout.
Consider `C[C@@H]1CCCN1CCCOc1ccc2c(c1)CCc1cc(=O)n(-c3ccccc3)nc1-2` [Example 76, 8-[3-((R)-2-Methyl-pyrrolidin-1-yl)-propoxy]-2-phenyl-5,6-dihydro-2H-benzo[h]cinnolin-3-one], for which the inhibitory constant (Ki) in assay [1] (Table A) and in assay [2] (setting [3]) was 0.1 to 100 nM each time.
For `O=c1cc2c(nn1Cc1ccccc1)-c1ccc(OCCCN3CCCCC3)cc1CC2` [Example 77, 2-Benzyl-8-(3-piperidin-1-yl-propoxy)-5,6-dihydro-2H-benzo[h]cinnolin-3-one], the Ki in assay [1] (Table A) was in the range of 0.1 to 100 nM; in assay [2] (setting [3]), 101 to 500 nM.
As for `CC(C)n1nc2c(cc1=O)CCc1cc(OCCCN3CCCCC3)ccc1-2` [Example 78, 2-Isopropyl-8-(3-piperidin-1-yl-propoxy)-5,6-dihydro-2H-benzo[h]cinnolin-3-one], the Ki in assay [1] (Table A) and in assay [2] (setting [3]) was 0.1 to 100 nM in each case.
With `C[C@@H]1CCCN1CCCOc1ccc(-c2ccc(=O)n(-c3ccccc3)n2)cc1F` [Example 81, 6-{3-Fluoro-4-[3-((R)-2-methyl-pyrrolidin-1-yl)-propoxy]-phenyl}-2-phenyl-2H-pyridazin-3-one], the inhibition constant (Ki) in assay [1] (Table A), in assay [1] (Table B), in assay [2] (setting [3]) and in assay [2] (setting [4]) was 0.1 to 100 nM in each case.
With `C[C@@H](COc1ccc(-c2ccc(=O)n(C)n2)cc1)CN1CCC[C@H]1C` [Example 82, 2-Methyl-6-{4-[(R)-2-methyl-3-((R)-2-methyl-pyrrolidin-1-yl)-propoxy]-phenyl}-2H-pyridazin-3-one], the inhibition constant (Ki) in assay [1] (Table B) and in assay [2] (setting [4]) was 0.1 to 100 nM each time.
For the compound `C[C@@H]1CCCN1CCCOc1ccc(-c2ccc(=O)n(C)n2)cc1Cl` [Example 85, 6-{3-Chloro-4-[3-((R)-2-methyl-pyrrolidin-1-yl)-propoxy]-phenyl}-2-methyl-2H-pyridazin-3-one], the Ki in assay [1] (Table B) and in assay [2] (setting [4]) was 0.1 to 100 nM each time.
As for `Cc1nn(C)c(=O)cc1-c1ccc(OCCCN2CCC[C@H]2C)cc1` [Example 86, 2,6-Dimethyl-5-{4-[3-((R)-2-methyl-pyrrolidin-1-yl)-propoxy]-phenyl}-2H-pyridazin-3-one], the inhibitory constant (Ki) in assay [1] (Table B) and in assay [2] (setting [4]) was 0.1 to 100 nM each time.
In the case of `Cc1nn(C)c(=O)cc1-c1ccc(OCCCN2CCCCC2)cc1` [Example 87, 2,6-Dimethyl-5-[4-(3-piperidin-1-yl-propoxy)-phenyl]-2H-pyridazin-3-one], the inhibitory constant (Ki) in assay [1] (Table B) and in assay [2] (setting [4]) was 0.1 to 100 nM in each case.
As for `Cc1n[nH]c(=O)cc1-c1ccc(OCCCN2CCC[C@H]2C)cc1` [Example 88, 6-Methyl-5-{4-[3-((R)-2-methyl-pyrrolidin-1-yl)-propoxy]-phenyl}-2H-pyridazin-3-one], the inhibition constant Ki in assay [1] (Table B) and in assay [2] (setting [4]) was 0.1 to 100 nM each time.
For `Cc1n[nH]c(=O)cc1-c1ccc(OCCCN2CCCCC2)cc1` [Example 89, 6-Methyl-5-[4-(3-piperidin-1-yl-propoxy)-phenyl]-2H-pyridazin-3-one], the Ki in assay [1] (Table B) and in assay [2] (setting [4]) was 0.1 to 100 nM each time.
As for `Cc1n[nH]c(=O)cc1-c1ccc(OCCCN2CCCCCC2)cc1` [Example 90, 5-[4-(3-Azepan-1-yl-propoxy)-phenyl]-6-methyl-2H-pyridazin-3-one], the inhibition constant Ki in assay [1] (Table B) is 0.1 to 100 nM; in assay [2] (Table B, cell prints a number instead of a letter, read-out: rat H3 Ki) it was 5 nM.
In the case of `C[C@@H]1CCCN1CCCOc1ccc(-c2cnn(C)c(=O)c2)cc1` [Example 91, 2-Methyl-5-{4-[3-((R)-2-methyl-pyrrolidin-1-yl)-propoxy]-phenyl}-2H-pyridazin-3-one], the inhibition constant Ki in assay [1] (Table B) and in assay [2] (setting [4]) was 0.1 to 100 nM throughout.
As to `Cn1ncc(-c2ccc(OCCCN3CCCCC3)cc2)cc1=O` [Example 92, 2-Methyl-5-[4-(3-piperidin-1-yl-propoxy)-phenyl]-2H-pyridazin-3-one], the inhibition constant Ki in assay [1] (Table B) and in assay [2] (setting [4]) was 0.1 to 100 nM throughout.
For the compound `Cn1ncc(-c2ccc(OCCCN3CCCCCC3)cc2)cc1=O` [Example 93, 5-[4-(3-Azepan-1-yl-propoxy)-phenyl]-2-methyl-2H-pyridazin-3-one], the inhibition constant (Ki) in assay [1] (Table B) and in assay [2] (setting [4]) was 0.1 to 100 nM in each case.
Consider `O=c1cc(-c2ccc(OCCCN3CCCCC3)cc2)cnn1-c1ccccn1` [Example 95, 5-[4-(3-Piperidin-1-yl-propoxy)-phenyl]-2-pyridin-2-yl-2H-pyridazin-3-one], for which the Ki in assay [1] (Table B) and in assay [2] (setting [4]) was 0.1 to 100 nM in each case.
Take `O=c1cc(-c2ccc(OCCCN3CCCCCC3)cc2)cnn1-c1ccccn1` [Example 96, 5-[4-(3-Azepan-1-yl-propoxy)-phenyl]-2-pyridin-2-yl-2H-pyridazin-3-one]: the inhibitory constant (Ki) in assay [1] (Table B) and in assay [2] (setting [4]) was 0.1 to 100 nM in each case.
Consider `Cc1cccnc1-n1ncc(-c2ccc(OCCCN3CCC[C@H]3C)cc2)cc1=O` [Example 99, 2-(3-Methyl-pyridin-2-yl)-5-{4-[3-((R)-2-methylpyrrolidin-1-yl)-propoxy]-phenyl}-2H-pyridazin-3-one], for which the Ki in assay [1] (Table B) and in assay [2] (setting [4]) was 0.1 to 100 nM in each case.
With `Cc1nn(-c2ccccn2)c(=O)cc1-c1ccc(OCCCN2CCC[C@H]2C)cc1` [Example 100, 6-Methyl-5-{4-[3-((R)-2-methyl-pyrrolidin-1-yl)-propoxy]-phenyl}-2-pyridin-2-yl-2H-pyridazin-3-one], the Ki in assay [1] (Table B) and in assay [2] (setting [4]) was 0.1 to 100 nM in each case.
As to `Cc1cccnc1-n1nc(C)c(-c2ccc(OCCCN3CCC[C@H]3C)cc2)cc1=O` [Example 101, 6-Methyl-2-(3-methyl-pyridin-2-yl)-5-{4-[3-((R)-2-methyl-pyrrolidin-1-yl)-propoxy]-phenyl}-2H-pyridazin-3-one], the Ki in assay [1] (Table B) and in assay [2] (setting [4]) was 0.1 to 100 nM in each case.
